PubChem BioAssay AID248 (DTP/NCI, 2004)
Several values for one entry are separate records, joined by “and”; a condition that tells them apart may be missing. Equal values may be shown once. Toxic doses and inconclusive results are not listed. No stated cut-off is given here; in the data, active means T/C of 150% or more; inactive means T/C below 125%.

Test system: L1210 leukemia ip in BDF1 mice, survival T/C
Experiment: NCI In Vivo Anticancer Drug Screen. Data for tumor model L1210 Leukemia (intraperitoneal) in B6D2F1 (BDF1) mice
Settings: endpoint: mean survival time, higher = longer survival
Summary of the method: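 In this screen, tumor-bearing mice given compound are compared to those given vehicle, and their survival values are reported as a treated-to-control quotient.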

[1] = dose: 30.0 mg/kg/injection, schedule: Q01DX001 (ip), vehicle: saline

Measured: T/C

O=C(Nc1ccc(C(=O)O)cc1)Nc1ccccc1C(F)(F)F
inactive: dose: 100.0 mg/kg/injection, schedule: Q01DX009 (ip), vehicle: gum acacia 100 % of control | dose: 200.0 mg/kg/injection, schedule: Q01DX009 (ip), vehicle: gum acacia 102 % of control | dose: 400.0 mg/kg/injection, schedule: Q01DX009 (ip), vehicle: gum acacia 96 % of control

COc1cccc2c(=O)c(COC(C)=O)c(C)[nH]c12
inactive: dose: 12.5 mg/kg/injection, schedule: Q01DX009 (ip), vehicle: saline with Tween-80 100 % of control | dose: 25.0 mg/kg/injection, schedule: Q01DX009 (ip), vehicle: saline with Tween-80 100 % of control | dose: 50.0 mg/kg/injection, schedule: Q01DX009 (ip), vehicle: saline with Tween-80 98 % of control | dose: 100.0 mg/kg/injection, schedule: Q01DX009 (ip), vehicle: saline with Tween-80 106 % of control

N/N=C(\N)N(Cc1ccccc1)c1ccccc1
inactive: dose: 7.5 mg/kg/injection, schedule: Q01DX001 (ip), vehicle: saline 94 % of control | dose: 7.5 mg/kg/injection, schedule: Q01DX009 (ip), vehicle: saline 96 % of control | dose: 7.5 mg/kg/injection, schedule: Q04DX003 (ip), vehicle: saline 97 % of control | dose: 15.0 mg/kg/injection, schedule: Q01DX001 (ip), vehicle: saline 92 % of control | dose: 15.0 mg/kg/injection, schedule: Q01DX009 (ip), vehicle: saline 94 % of control | dose: 15.0 mg/kg/injection, schedule: Q04DX003 (ip), vehicle: saline 95 % of control | [1] 100 % of control | dose: 30.0 mg/kg/injection, schedule: Q01DX009 (ip), vehicle: saline 102 % of control | dose: 30.0 mg/kg/injection, schedule: Q04DX003 (ip), vehicle: saline 97 % of control

NC(=O)C(=O)NCCCCN1CC1
inactive: dose: 12.5 mg/kg/injection, schedule: Q04DX003 (ip), vehicle: Klucel (hydroxypropylcellulose) (HPC) 97 % of control | dose: 25.0 mg/kg/injection, schedule: Q04DX003 (ip), vehicle: Klucel (hydroxypropylcellulose) (HPC) 97 % of control | dose: 50.0 mg/kg/injection, schedule: Q04DX003 (ip), vehicle: Klucel (hydroxypropylcellulose) (HPC) 102 % of control | dose: 100.0 mg/kg/injection, schedule: Q04DX003 (ip), vehicle: Klucel (hydroxypropylcellulose) (HPC) 114 % of control

CCCCCCCCC(=O)N1CCN(C(=O)CCCCCCCC)C1
inactive: [1] 96 % of control | dose: 100.0 mg/kg/injection, schedule: Q01DX001 (ip), vehicle: saline 96 % of control | dose: 300.0 mg/kg/injection, schedule: Q01DX001 (ip), vehicle: saline 91 % of control

CCOC(=O)c1oc2c(C(C)=O)c(O)ccc2c1C
inactive: dose: 100.0 mg/kg/injection, schedule: Q04DX002 (ip), vehicle: Klucel (hydroxypropylcellulose) (HPC) 101 % of control and 103 % of control and 92 % of control | dose: 200.0 mg/kg/injection, schedule: Q04DX002 (ip), vehicle: Klucel (hydroxypropylcellulose) (HPC) 101 % of control and 103 % of control and 92 % of control | dose: 400.0 mg/kg/injection, schedule: Q04DX002 (ip), vehicle: Klucel (hydroxypropylcellulose) (HPC) 108 % of control | dose: 800.0 mg/kg/injection, schedule: Q04DX002 (ip), vehicle: Klucel (hydroxypropylcellulose) (HPC) 93 % of control and 95 % of control

COCCc1nnn(C)n1
inactive: dose: 100.0 mg/kg/injection, schedule: Q04DX002 (ip), vehicle: saline 97 % of control | dose: 200.0 mg/kg/injection, schedule: Q04DX002 (ip), vehicle: saline 97 % of control | dose: 400.0 mg/kg/injection, schedule: Q04DX002 (ip), vehicle: saline 108 % of control

O=[N+]([O-])c1cccn2ncnc12
inactive: dose: 5.0 mg/kg/injection, schedule: Q01DX001 (ip), vehicle: acetone 104 % of control | dose: 10.0 mg/kg/injection, schedule: Q01DX001 (ip), vehicle: acetone 106 % of control | dose: 20.0 mg/kg/injection, schedule: Q01DX001 (ip), vehicle: acetone 96 % of control | dose: 40.0 mg/kg/injection, schedule: Q01DX001 (ip), vehicle: acetone 96 % of control | dose: 80.0 mg/kg/injection, schedule: Q01DX001 (ip), vehicle: acetone 107 % of control
